Consider 68 molecules from the supplement of paper PMC3974653.

Structures can show the parent of a compound that is named as a salt.

The assay has as its system MTT (mouse pheochromocytoma). Briefly: IC50 of cell viability (ATP content). The settings on record: (24 or 48 h). A digest of the protocol: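 MTT mouse pheochromocytoma cells were seeded into white 1536-well plates at 5 µl per well from a 200,000 cells/ml suspension in DMEM with 5% FBS and 1% horse serum, then cultured overnight at 37°C, 5% CO2. A pintool added 23 nl of library compound in DMSO at 8 concentrations (final 0.5 nM to 46 µM) for 24 or 48 hrs, and CellTiter-Glo ATP luminescence was read after 15 minutes. Signals were scaled so that positive-control wells equalled 100% and DMSO wells 0%. IC50 values were derived by fitting a four-parameter logistic curve.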
As for `CN1[C@@H]2CC[C@H]1C[C@@H](OC(c1ccccc1)c1ccccc1)C2` [Benzatropina], the “IC50 of cell viability” value is greater than 46 µM.

For the molecule `O=C1CCC(c2ccccc2)(C2CCN(Cc3ccccc3)CC2)C(=O)N1` (stereo not drawn) [Benzetimidum], the “IC50 of cell viability” value was greater than 46 µM.

As for `O=C(NO)c1ccccc1` [Benzhydroxamic acid], the “IC50 of cell viability” value is greater than 46 µM.

Regarding `O=C(Cn1ccnc1[N+](=O)[O-])NCc1ccccc1` [Benznidazol], the “IC50 of cell viability” value is greater than 46 µM.

Turning to `CCC1(c2ccccc2)C(=O)NC(=O)N(C(=O)c2ccccc2)C1=O` (stereo not drawn) [Benzobarbital], the “IC50 of cell viability” value is greater than 46 µM.

As to `CCOC(=O)c1ccc(N)cc1` [Benzocaine], the “IC50 of cell viability” value is greater than 46 µM.

`Cc1cc(Nc2ccccc2C(=O)O)ccc1Cl` [Benzoic acid, 2-[(4-chloro-3-methylphenyl)amino]-]: the “IC50 of cell viability” value is greater than 46 µM.

As for `O=C(c1ccccc1)C(O)c1ccccc1` (stereo not drawn) [Benzoin], the “IC50 of cell viability” value is greater than 46 µM.

In the case of `CCCCNc1ccc(C(=O)OCCOCCOCCOCCOCCOCCOCCOCCOCCOC)cc1` [Benzonatate], the “IC50 of cell viability” value was greater than 46 µM.

Turning to `O=C(c1ccccc1)c1ccccc1` [Benzophenone], the “IC50 of cell viability” value is greater than 46 µM.

For `O=C(OOC(=O)c1ccccc1)c1ccccc1` [Benzoyl peroxide], the “IC50 of cell viability” value is greater than 46 µM.

`N[S+]([O-])(=O)C1=C(Cl)C=C2\N=C(\CSCC3=CC=CC=C3)N[S+]([O-])(=O)C2=C1` [Benzthiazide]: the “IC50 of cell viability” value is greater than 46 µM.

For `CN1[C@@H]2CC[C@H]1CC(OC(c1ccccc1)c1ccccc1)C2.C[S+](=O)([O-])O` (stereo partly drawn) [Benztropine], the “IC50 of cell viability” value was greater than 46 µM.

For `CN(C)CCCOc1nn(Cc2ccccc2)c2ccccc12` [Benzydamine hydrochloride], the “IC50 of cell viability” value was greater than 46 µM.

Regarding `OCc1ccccc1` [Benzyl alcohol], the “IC50 of cell viability” value is greater than 46 µM.

`O=C(OCc1ccccc1)c1ccccc1` [Benzyl benzoate]: the “IC50 of cell viability” value is greater than 46 µM.

`N[S+](=O)([O-])c1cc2c(cc1Cl)N[C@H](Cc1ccccc1)N[S+]2(=O)[O-]` [Benzylhydrochlorothiazide]: the “IC50 of cell viability” value was greater than 46 µM.

`Nc1ccc([S+](=O)([O-])NCc2ccccc2)cc1` [Benzylsulfamide]: the “IC50 of cell viability” value was greater than 46 µM.

Consider `COc1c(O)cc2c(c1O)[C@H]1O[C@@H](CO)[C@@H](O)[C@@H](O)[C@@H]1OC2=O.O` [Bergenin monohydrate], for which the “IC50 of cell viability” value was greater than 46 µM.

`CC(C)C[C@H](NC(=O)[C@@H](O)[C@H](N)Cc1ccccc1)C(=O)O.Cl` [Bestatin hydrochloride]: the “IC50 of cell viability” value was greater than 46 µM.

For `CNCCc1ccccn1.C[S+](=O)([O-])O` [Betahistine mesylate], the “IC50 of cell viability” value was greater than 46 µM.

In the case of `C[N+](C)(C)CC(=O)O` [Betaine hydrochloride], the “IC50 of cell viability” value was greater than 46 µM.

As for `CCC(=O)OCC(=O)C1(OC(=O)CC)C(C)CC2C3CCC4=CC(=O)C=CC4(C)C3(F)C(O)CC21C` (stereo not drawn) [Betamethasone dipropionate], the “IC50 of cell viability” value was greater than 46 µM.

For `C[C@H]1C[C@H]2[C@@H]3CCC4=CC(=O)C=C[C@]4(C)[C@@]3(F)[C@@H](O)C[C@]2(C)[C@@]1(O)C(=O)CO` [Betamethasone], the “IC50 of cell viability” value is greater than 46 µM.

Regarding `NCCc1cc[nH]n1` [Betazole hydrochloride], the “IC50 of cell viability” value is greater than 46 µM.

For the molecule `C/N=C(\NCc1ccccc1)[NH2+]C.C/N=C(\NCc1ccccc1)[NH2+]C.O=S(=O)([O-])[O-]` [Bethanidine Sulfate (2:1)], the “IC50 of cell viability” value was greater than 46 µM.

For `COc1ccc(CCNC[C@H](O)COc2cccc(C)c2)cc1OC` [Bevantolol], the “IC50 of cell viability” value is greater than 46 µM.

Turning to `CC(C)(Oc1ccc(CCNC(=O)c2ccc(Cl)cc2)cc1)C(=O)O` [Bezafibrate], the “IC50 of cell viability” value is greater than 46 µM.

For `[H][C@](C)(O)[C@@]1([H])C(=O)[N@]2C(C([O-])=O)=C(SC3CN4C=NC=[N+]4C3)[C@@]([H])(C)C12[H]` (stereo partly drawn) [Biapenem], the “IC50 of cell viability” value was greater than 46 µM.

`CNCCCCOc1ccccc1Cc1ccccc1` [Bifemelane]: the “IC50 of cell viability” value is greater than 46 µM.

For the molecule `O=C(COCCOCCOCC(=O)Nc1c(I)cc(I)c(C(=O)O)c1I)Nc1c(I)cc(I)c(C(=O)O)c1I` [Biliscopin], the “IC50 of cell viability” value is greater than 46 µM.

In the case of `NCc1ccccc1Sc1ccccc1CO` [Bipenamol hydrochloride], the “IC50 of cell viability” value was greater than 46 µM.

For the molecule `OC(CCN1CCCCC1)(c1ccccc1)C1CC2C=CC1C2` (stereo not drawn) [Biperiden], the “IC50 of cell viability” value was greater than 46 µM.

With `CC(=O)Oc1ccc(C(c2ccc(OC(C)=O)cc2)c2ccccn2)cc1` [Bisacodyl], the “IC50 of cell viability” value is greater than 46 µM.

On to `C/C(=C(/CCOC(=O)c1ccccc1)SS/C(CCOC(=O)c1ccccc1)=C(\C)N(C=O)Cc1cnc(C)nc1N)N(C=O)Cc1cnc(C)nc1N` [Bisbentiamine], for which the “IC50 of cell viability” value was greater than 46 µM.

Consider `[O]=[Bi][O]C(=O)[O][Bi]=[O]` [Bismuth subcarbonate], for which the “IC50 of cell viability” value was greater than 46 µM.

As for `O=C1[O][Bi]([OH])[O]c2ccccc21` [Bismuth subsalicylate], the “IC50 of cell viability” value was greater than 46 µM.

With `CC(C)NCC(O)COc1ccc(COCCOC(C)C)cc1` (stereo not drawn) [Bisoprolol hemifumarate salt], the “IC50 of cell viability” value was greater than 46 µM.

For `CC(C)NCC(O)COc1ccc(COCCOC(C)C)cc1.CC(C)NCC(O)COc1ccc(COCCOC(C)C)cc1.O=C(O)/C=C/C(=O)O` (stereo not drawn) [Bisoprolol hemifumarate salt], the “IC50 of cell viability” value was greater than 46 µM.

In the case of `CC(=O)Oc1ccc(C2(c3ccc(OC(C)=O)cc3)Oc3ccccc3NC2=O)cc1` [Bisoxatin Acetate], the “IC50 of cell viability” value was greater than 46 µM.

Take `CC(C)(c1ccc(O)cc1)c1ccc(O)cc1` [Bisphenol A]: the “IC50 of cell viability” value is greater than 46 µM.

On to `[O-][S+](c1cc(Cl)cc(Cl)c1O)c1cc(Cl)cc(Cl)c1O` [Bithionoloxide], for which the “IC50 of cell viability” value is greater than 46 µM.

With `S=C=Nc1ccc(N=C=S)cc1` [Bitoscanate], the “IC50 of cell viability” value is greater than 46 µM.

As to `Cc1c(N)nc([C@@H](CC(N)=O)NC[C@H](N)C(N)=O)nc1C(=O)N[C@H](C(=O)N[C@H](C)[C@H](O)[C@H](C)C(=O)N[C@@H](C(=O)NCCc1nc(-c2nc(C(=O)NCCC[S+](C)C)cs2)cs1)[C@H](C)O)[C@H](O[C@@H]1O[C@@H](CO)[C@@H](O)[C@H](O)[C@@H]1O[C@H]1O[C@H](CO)[C@H](O)[C@H](OC(N)=O)[C@@H]1O)c1c[nH]cn1` [Bleomycin Sulfate], the “IC50 of cell viability” value is greater than 46 µM.

For the molecule `OB(O)O` [Boric acid], the “IC50 of cell viability” value was greater than 46 µM.

Take `O=C(Nc1ccccc1-c1ccc(Cl)cc1)c1cccnc1Cl` [Boscalid]: the “IC50 of cell viability” value is greater than 46 µM.

Turning to `COc1cc(Nc2c(C#N)cnc3cc(OCCCN4CCN(C)CC4)c(OC)cc23)c(Cl)cc1Cl` [Bosutinib Methanoate], the “IC50 of cell viability” value was greater than 46 µM.

Take `CC(C)(C)OC(=O)c1ncn2c1[C@@H]1CCCN1C(=O)c1c(Br)cccc1-2` [Bretazenil]: the “IC50 of cell viability” value is greater than 46 µM.

Regarding `CC[N+](C)(C)Cc1ccccc1Br.Cc1ccc(S(=O)(=O)[O-])cc1` [Bretylium tosylate], the “IC50 of cell viability” value is greater than 46 µM.

Turning to `CCN[C@@H]1CN(CCCOC)[S+](=O)([O-])c2sc([S+](N)(=O)[O-])cc21` [Brinzolamide], the “IC50 of cell viability” value is greater than 46 µM.

With `O=C1c2ccccc2C(=O)C1c1ccc(Br)cc1` [Bromindione], the “IC50 of cell viability” value is greater than 46 µM.

Take `CC(C)C(Br)C(=O)NC(N)=O` (stereo not drawn) [Bromisovalum]: the “IC50 of cell viability” value was greater than 46 µM.

Regarding `O=C(CCCN1CCC(O)(c2ccc(Br)cc2)CC1)c1ccc(F)cc1` [Bromperidol], the “IC50 of cell viability” value was greater than 46 µM.

As for `Cc1ccc2c(Br)cc(Br)c(O)c2n1` [Broquinaldol], the “IC50 of cell viability” value is greater than 46 µM.

In the case of `CC1=NN=C2C\N=C(C3=CC=CC=C3Cl)/C4=C(SC(=C4)Br)[N]12` [Brotizolam], the “IC50 of cell viability” value is greater than 46 µM.

Take `OC[C@H]1O[C@H](C[C@@H]1O)N2\C=C(Br)/C(=O)NC2=O` [Broxuridina]: the “IC50 of cell viability” value was greater than 46 µM.

`CCOc1ccc(NC(=O)CC(C)O)cc1` (stereo not drawn) [Bucetin]: the “IC50 of cell viability” value is greater than 46 µM.

For `CC(C)(S)C(=O)NC(CS)C(=O)O` (stereo not drawn) [Bucillamine], the “IC50 of cell viability” value is greater than 46 µM.

Consider `CC(C)(S)C(=O)N[C@H](CS)C(=O)O` [Bucillamine], for which the “IC50 of cell viability” value is greater than 46 µM.

Consider `CC(C)(C)c1ccc(CN2CCN([C@H](c3ccccc3)c3ccc(Cl)cc3)CC2)cc1` [Buclodin], for which the “IC50 of cell viability” value is greater than 46 µM.

Take `CCC[C@@H]1O[C@@H]2C[C@@H]3[C@@H]4CC\C5=C\C(=O)\C=C/[C@@]5(C)[C@H]4[C@H](O)C[C@@]3(C)[C@]2(O1)C(=O)CO` [Budesonide]: the “IC50 of cell viability” value is greater than 46 µM.

As for `CCCCOc1ccc(CC(=O)NO)cc1` [Bufexamac], the “IC50 of cell viability” value was greater than 46 µM.

Consider `COc1cc(OC)c(C(=O)CCCN2CCCC2)c(OC)c1` [Buflomedil hydrochloride], for which the “IC50 of cell viability” value was greater than 46 µM.

For `CN(C)CCc1c[nH]c2ccc(O)cc12` [Bufotenine], the “IC50 of cell viability” value is greater than 46 µM.

On to `CCCCNc1cc(C(=O)O)cc([S+](N)(=O)[O-])c1Oc1ccccc1` [Bumetanide], for which the “IC50 of cell viability” value was greater than 46 µM.

Turning to `Cc1cc(-n2nc3ccc(Cl)cc3n2)c(O)c(C(C)(C)C)c1` [Bumetrizole], the “IC50 of cell viability” value was greater than 46 µM.

As to `COC12CCC3(CC1[C@](C)(O)C(C)(C)C)[C@H]1Cc4ccc(O)c5c4[C@@]3(CCN1CC1CC1)C2O5` (stereo partly drawn) [Bupenorphine], the “IC50 of cell viability” value is greater than 46 µM.

For the molecule `C[C@H](NC(C)(C)C)C(=O)c1cccc(Cl)c1` [Bupropion hydrochloride], the “IC50 of cell viability” value was greater than 46 µM.
